Where two headings read alike, the source gives them in different places.
Target: T1, SIRT1 (Homo sapiens, UniProt Q96EB6)
T1 sequence (Q96EB6 1-747): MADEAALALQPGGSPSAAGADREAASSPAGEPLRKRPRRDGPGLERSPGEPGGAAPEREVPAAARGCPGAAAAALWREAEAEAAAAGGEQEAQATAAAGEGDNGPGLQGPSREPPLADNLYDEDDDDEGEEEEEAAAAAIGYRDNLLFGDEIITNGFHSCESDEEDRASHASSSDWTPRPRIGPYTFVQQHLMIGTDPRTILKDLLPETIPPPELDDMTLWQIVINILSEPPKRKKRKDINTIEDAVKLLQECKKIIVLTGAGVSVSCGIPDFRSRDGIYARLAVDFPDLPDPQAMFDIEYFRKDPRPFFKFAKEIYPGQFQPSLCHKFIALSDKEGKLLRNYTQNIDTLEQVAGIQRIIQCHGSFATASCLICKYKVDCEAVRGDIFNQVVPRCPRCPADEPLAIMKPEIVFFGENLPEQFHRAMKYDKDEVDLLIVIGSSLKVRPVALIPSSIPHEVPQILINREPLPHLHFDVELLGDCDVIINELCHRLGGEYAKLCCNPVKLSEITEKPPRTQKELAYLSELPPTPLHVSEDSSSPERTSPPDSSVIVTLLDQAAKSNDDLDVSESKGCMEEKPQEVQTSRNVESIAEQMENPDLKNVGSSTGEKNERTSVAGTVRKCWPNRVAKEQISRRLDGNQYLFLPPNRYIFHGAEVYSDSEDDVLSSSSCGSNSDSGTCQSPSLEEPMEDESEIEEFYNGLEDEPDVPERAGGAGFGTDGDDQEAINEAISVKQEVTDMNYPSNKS
Assay: Trp mass spectrometry assay (SIRT1 activation)
Type: biochemical
Conditions: for Emax: percent maximum fold activation of SIRT1, read-out: Tryp % Fold Act
In short: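 Activation is expressed as EC1.5, the concentration raising activity 50% above DMSO control, and as maximum percent of control. Mass-spec readout was OAADPR or deacetylated Trp peptide after a formic-acid-quenched 25-min, 25 °C reaction: 10 nM bacterially expressed His-SIRT1, 0.5 μM acetyl-p53-derived peptide, 120 μM NAD+, pH 7.5 HEPES with […].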

[1] = Trp mass spectrometry assay, EC1.5 = concentration of test compound that results in 150% activation of SIRT1
[2] = concentration of test compound that results in 150% activation of SIRT1, Trp peptide substrate

SMILES	Tryp AVG EC1.5 (μM) [1]	Emax (Trp mass spectrometry assay)	Tryp AVG EC1.5 (μM) [2]	Emax (Trp peptide substrate)
N#Cc1cccc(-c2ccc3c(n2)N(C(=O)Nc2cnccn2)[C@H]2CCN3C2)c1 [Example 189]	A (EC1.5<1 μM)	≥ 150%		
COc1cncc(NC(=O)N2c3nc(-c4cccc(C#N)c4)ccc3N3CC[C@H]2C3)n1 [Example 190]	B (EC1.5 1-25 μM)	≥ 150%		
O=C(Nc1cccc(-c2cnco2)c1)N1c2nc(-c3cccc(N4CCCC4)c3)ccc2N2CC[C@H]1C2 [Example 191]	A (EC1.5<1 μM)	≥ 150%		
O=C(Nc1cccnc1)N1c2nc(-c3cccc(N4CCCC4)c3)ccc2N2CC[C@H]1C2 [Example 192]	B (EC1.5 1-25 μM)	≥ 150%		
O=C(Nc1ccncn1)N1c2nc(-c3cccc(N4CCCC4)c3)ccc2N2CC[C@H]1C2 [Example 193]	B (EC1.5 1-25 μM)	≥ 150%		
O=C(Nc1cccnc1)N1c2nc(-c3cccc(C(F)(F)F)c3)ccc2N2CCC[C@@H]1C2 [Example 194]	A (EC1.5<1 μM)	≥ 150%		
O=C(Nc1ccncc1)N1c2nc(-c3cccc(C(F)(F)F)c3)ccc2N2CCC[C@@H]1C2 [Example 195]	B (EC1.5 1-25 μM)	≥ 150%		
O=C(Nc1cccnn1)N1c2nc(-c3cccc(C(F)(F)F)c3)ccc2N2CCC[C@@H]1C2 [Example 196]	B (EC1.5 1-25 μM)	≥ 150%		
COc1cncc(NC(=O)N2c3nc(-c4cccc(OC(F)(F)F)c4)ccc3N3CC[C@H]2C3)n1 [Example 197]	A (EC1.5<1 μM)	≥ 150%		
O=C(Nc1cncc(F)c1)N1c2nc(-c3cccc(N4CCCC4)c3)ccc2N2CC[C@H]1C2 [Example 198]	B (EC1.5 1-25 μM)	≥ 150%		
Cn1cc(NC(=O)N2c3nc(-c4cccc(N5CCCC5)c4)ccc3N3CC[C@H]2C3)cn1 [Example 199]	B (EC1.5 1-25 μM)	≥ 150%		
CN(C(=O)N1c2nc(-c3cccc(C(F)(F)F)c3)ccc2N2CC[C@H]1C2)c1ccccn1 [Example 200]	C (EC1.5>25 μM)	< 150%		
Cc1nc(NC(=O)N2c3nc(-c4cccc(C(F)(F)F)c4)ccc3N3CC[C@@H]2C3)sc1C [Example 201]	B (EC1.5 1-25 μM)	≥ 150%		
O=C(Nc1ccncn1)N1c2nc(-c3cccc(C(F)(F)F)c3)ccc2N2CC[C@@H]1C2 [Example 202]	B (EC1.5 1-25 μM)	≥ 150%		
O=C(Nc1ccc(F)cn1)N1c2nc(-c3cccc(C(F)(F)F)c3)ccc2N2CC[C@@H]1C2 [Example 203]	B (EC1.5 1-25 μM)	≥ 150%		
O=C(Nc1ccc(F)cn1)N1c2nc(-c3cccc(Cl)c3)ccc2N2CC[C@@H]1C2 [Example 204]	B (EC1.5 1-25 μM)	≥ 150%		
COc1cccc(-c2ccc3c(n2)N(C(=O)Nc2ccc(F)cn2)[C@@H]2CCN3C2)c1 [Example 205]	B (EC1.5 1-25 μM)	≥ 150%		
O=C(Nc1cnccn1)N1c2nc(-c3cccc(N4CCCC4)c3)ccc2N2CC[C@H]1C2 [Example 206]	B (EC1.5 1-25 μM)	≥ 150%		
Cn1ncc2cc(NC(=O)N3c4nc(-c5cccc(N6CCCC6)c5)ccc4N4CC[C@H]3C4)ccc21 [Example 207]	A (EC1.5<1 μM)	≥ 150%		
Cn1ccc(NC(=O)N2c3nc(-c4cccc(N5CCCC5)c4)ccc3N3CC[C@H]2C3)n1 [Example 208]	B (EC1.5 1-25 μM)	≥ 150%		
COc1cc(NC(=O)N2c3nc(-c4cccc(C#N)c4)ccc3N3CCC[C@@H]2C3)ncn1 [Example 209]	C (EC1.5>25 μM)	< 150%		
N#Cc1cccc(-c2ccc3c(n2)N(C(=O)Nc2cccnc2)[C@@H]2CCCN3C2)c1 [Example 210]	B (EC1.5 1-25 μM)	≥ 150%		
O=C(Nc1ccncn1)N1c2nc(N3CCCC(C(F)(F)F)C3)ccc2N2CC[C@H]1C2 (stereo partly drawn) [Example 211]	B (EC1.5 1-25 μM)	≥ 150%		
O=C(Nc1cccc(-c2cnco2)c1)N1c2nc(N3CCCC(C(F)(F)F)C3)ccc2N2CC[C@H]1C2 (stereo partly drawn) [Example 212]	A (EC1.5<1 μM)	≥ 150%		

SMILES	Tryp AVG EC1.5 (μM) [1]	Emax (Trp mass spectrometry assay)	Tryp AVG EC1.5 (μM) [2]	Emax (Trp peptide substrate)
Cc1cc(C)nc(NC(=O)N2c3nc(N4CCCC(C(F)(F)F)C4)ccc3N3CC[C@H]2C3)c1 (stereo partly drawn) [Example 213]	B (EC1.5 1-25 μM)	≥ 150%		
Cc1csc(NC(=O)N2c3nc(N4CCCC(C(F)(F)F)C4)ccc3N3CC[C@H]2C3)n1 (stereo partly drawn) [Example 214]	A (EC1.5<1 μM)	≥ 150%		
Cc1nc(NC(=O)N2c3nc(N4CCCC(C(F)(F)F)C4)ccc3N3CC[C@H]2C3)sc1C (stereo partly drawn) [Example 215]	B (EC1.5 1-25 μM)	≥ 150%		
CN(C)c1cc(NC(=O)N2c3nc(N4CCCC(C(F)(F)F)C4)ccc3N3CC[C@H]2C3)ccn1 (stereo partly drawn) [Example 216]	A (EC1.5<1 μM)	≥ 150%		
CN(C)c1ccnc(NC(=O)N2c3nc(N4CCCC(C(F)(F)F)C4)ccc3N3CC[C@H]2C3)n1 (stereo partly drawn) [Example 217]	B (EC1.5 1-25 μM)	≥ 150%		
O=C(Nc1cncc(F)c1)N1c2nc(-c3cccc(Cl)c3)ccc2N2CC[C@@H]1C2 [Example 218]			A (EC1.5<1 μM)	≥ 150%
COc1cccc(-c2ccc3c(n2)N(C(=O)Nc2ccccn2)[C@@H]2CCN3C2)c1 [Example 219]			B (EC1.5 1-25 μM)	≥ 150%
Cc1cc(-c2ccc3c(n2)N(C(=O)Nc2ccccn2)[C@H]2CCN3C2)ccn1 [Example 220]			A (EC1.5<1 μM)	≥ 150%
Cc1ccc(-c2ccc3c(n2)N(C(=O)Nc2ccccn2)[C@H]2CCN3C2)cn1 [Example 221]			B (EC1.5 1-25 μM)	≥ 150%
Cc1cc(-c2ccc3c(n2)N(C(=O)Nc2cnccn2)[C@H]2CCN3C2)ccn1 [Example 222]			A (EC1.5<1 μM)	≥ 150%
Cc1cc(-c2ccc3c(n2)N(C(=O)Nc2ccc(F)cn2)[C@H]2CCN3C2)ccn1 [Example 223]			A (EC1.5<1 μM)	≥ 150%
Cc1ccc(-c2ccc3c(n2)N(C(=O)Nc2cncc(F)c2)[C@H]2CCN3C2)cn1 [Example 224]			B (EC1.5 1-25 μM)	≥ 150%
N#Cc1cccc(-c2ccc3c(n2)N(C(=O)Nc2ccccn2)[C@@H]2CCCN3C2)c1 [Example 225]			B (EC1.5 1-25 μM)	≥ 150%
N#Cc1cccc(-c2ccc3c(n2)N(C(=O)Nc2cccnn2)[C@@H]2CCCN3C2)c1 [Example 226]			B (EC1.5 1-25 μM)	≥ 150%
N#Cc1cccc(-c2ccc3c(n2)N(C(=O)Nc2ccc(F)cn2)[C@@H]2CCCN3C2)c1 [Example 227]			B (EC1.5 1-25 μM)	≥ 150%
N#Cc1cccc(-c2ccc3c(n2)N(C(=O)Nc2cncc(F)c2)[C@@H]2CCCN3C2)c1 [Example 228]			B (EC1.5 1-25 μM)	≥ 150%
O=C(Nc1cccnc1)N1c2nc(N3CCCC(C(F)(F)F)C3)ccc2N2CC[C@H]1C2 (stereo partly drawn) [Example 229]			B (EC1.5 1-25 μM)	≥ 150%
Cc1cncc(NC(=O)N2c3nc(N4CCCC(C(F)(F)F)C4)ccc3N3CC[C@H]2C3)c1 (stereo partly drawn) [Example 230]			A (EC1.5<1 μM)	≥ 150%
Cc1cc(NC(=O)N2c3nc(N4CCCC(C(F)(F)F)C4)ccc3N3CC[C@H]2C3)cc(C)n1 (stereo partly drawn) [Example 231]			B (EC1.5 1-25 μM)	≥ 150%
O=C(Nc1cncc(F)c1)N1c2nc(N3CCCC(C(F)(F)F)C3)ccc2N2CC[C@H]1C2 (stereo partly drawn) [Example 232]			B (EC1.5 1-25 μM)	≥ 150%
O=C(Nc1cccc(-c2cnco2)c1)N1c2nc(-c3cccc(C(F)(F)F)c3)ccc2N2CC[C@@H]1C2 [Example 233]			A (EC1.5<1 μM)	≥ 150%
O=C(Nc1ccncn1)N1c2nc(-c3cccc(Cl)c3)ccc2N2CC[C@@H]1C2 [Example 234]			B (EC1.5 1-25 μM)	≥ 150%
O=C(Nc1cccc(-c2cnco2)c1)N1c2nc(-c3cccc(Cl)c3)ccc2N2CC[C@@H]1C2 [Example 235]			A (EC1.5<1 μM)	≥ 150%
Cc1ccc(-c2ccc3c(n2)N(C(=O)Nc2cnccn2)[C@H]2CCN3C2)cn1 [Example 236]			B (EC1.5 1-25 μM)	≥ 150%

Reference: US9765075B2, “Substituted bridged urea analogs as sirtuin modulators” (GLAXOSMITHKLINE LLC, priority 2013, dated 2017)
